The values that follow come from ChEMBL document CHEMBL4616586, “Design, synthesis and biological evaluation of substituted flavones and aurones as potential anti-influenza agents” (Bioorg Med Chem, 2020).

In data set [1] the target is Neuraminidase (Influenza A virus (A/Puerto Rico/8/1934(H1N1))) (UniProt P03468). As to the kind of experiment: Non-competitive inhibition of Influenza A virus (H1N1) neuraminidase by Lineweaver-Burk plot analysis.
In another data set the test system is Influenza A virus. As to the kind of experiment: Antiviral activity against Influenza A virus (H1N1) infected in dog MDCK cells assessed as reduction in log2HA titer incubated for 3 to 4 days by CPE assay. The data set is classed as functional, organism-based.
In data set [2] the target is Neuraminidase (Influenza A virus (A/Puerto Rico/8/1934(H1N1)), UniProt P03468). As to the kind of experiment: Inhibition of Influenza A virus (H1N1) neuraminidase.
Data set [3] can be described thus: Selectivity index, ratio of CC50 for dog MDCK cells to EC50 for Influenza A virus (H1N1) infected in dog MDCK cells. The data set is classed as toxicity, cell-based. The conditions noted are these: read-out: Ratio CC50/EC50.
The nature of data set [4]: Cytotoxicity against dog MDCK cells assessed as reduction in cell viability by MTT assay. It counts as cell-based, Canis lupus familiaris.

Activity calls are given as the source filed them. No cut-off for these calls is given here.

Neuraminidase (Influenza A virus (A/Puerto Rico/8/1934(H1N1)), UniProt P03468), sequence (P03468 whole entry): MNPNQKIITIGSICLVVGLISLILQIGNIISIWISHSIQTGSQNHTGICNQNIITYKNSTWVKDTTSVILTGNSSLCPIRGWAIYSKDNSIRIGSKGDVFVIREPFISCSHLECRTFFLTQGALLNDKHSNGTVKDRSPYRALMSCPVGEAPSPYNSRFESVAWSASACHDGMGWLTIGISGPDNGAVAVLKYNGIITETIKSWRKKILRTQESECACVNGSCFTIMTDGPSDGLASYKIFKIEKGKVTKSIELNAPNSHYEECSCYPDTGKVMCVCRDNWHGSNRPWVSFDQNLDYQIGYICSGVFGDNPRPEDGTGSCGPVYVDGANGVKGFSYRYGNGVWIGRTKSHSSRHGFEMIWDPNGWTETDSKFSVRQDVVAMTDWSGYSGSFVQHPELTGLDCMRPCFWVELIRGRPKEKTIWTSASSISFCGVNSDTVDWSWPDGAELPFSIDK
Neuraminidase (Influenza A virus (A/Puerto Rico/8/1934(H1N1))), sequence (P03468 whole entry): as above

Usually EC50 stands for the concentration giving half of the maximal effect. One may read the IC50 as the concentration at which inhibition is half-maximal. Read a low IC50 as inhibition by little substance. What is called CC50 is the concentration that lowers cell viability or growth by half. As to `COc1ccc(-c2cc(=O)c3ccccc3o2)cc1` [4'-METHOXYFLAVONE], the inhibition result in data set [1] was “Active”. Besides, in the data set with Influenza A virus, the EC50 came out at 0.00936 µM. For the same compound, in data set [2], the IC50 amounted to 8.74 µM. Besides, the selectivity ratio in data set [3] turned out to be 20500. Also, in data set [4], the CC50 was 192 µM.
As for `O=c1c(O)c(-c2ccc(O)c(O)c2)oc2cc(O)cc(O)c12` [QUERCETIN], in data set [1], the inhibition entry was “Active”. In addition, the EC50 with Influenza A virus turned out to be 0.0845 µM. Moreover, the half-inhibitory concentration (IC50) in data set [2] turned out to be 7.75 µM. Moreover, in data set [3], the selectivity ratio came to 3010.
In the case of `O=c1cc(-c2cccc(Cl)c2)oc2ccccc12`, the EC50 with Influenza A virus was 0.0477 µM. The compound also yielded an IC50 in data set [2] of 32.6 µM. Also, in data set [3], the selectivity ratio was 3650. Moreover, the half-maximal cytotoxic concentration (CC50) in data set [4] turned out to be 174 µM.
In the same order, the values of `O=c1cc(-c2ccc(Cl)cc2)oc2ccccc12` are 0.0359 µM, 27.7 µM, 3210 and 115 µM.
Take `COc1ccccc1-c1cc(=O)c2ccccc2o1`: the CC50 in data set [4] came out at 171 µM.
`O=C1/C(=C/c2cccc(Cl)c2)Oc2ccccc21`: in data set [4], the CC50 was 26.9 µM.
For `O=c1cc(-c2ccccc2Cl)oc2ccccc12`, the CC50 in data set [4] came to 388 µM.
For the compound `COc1ccc(/C=C2\Oc3ccccc3C2=O)cc1` [4'-METHOXY-AURONE], in data set [1], the inhibition entry was “Active”. For the same compound, in the data set with Influenza A virus, the EC50 is 0.0353 µM. The compound also registered an IC50 in data set [2] of 37.5 µM. For the same compound, the selectivity ratio in data set [3] was found to be 4800. Besides, in data set [4], the CC50 is 169 µM.
For the compound `COc1ccccc1/C=C1\Oc2ccccc2C1=O` [(Z)-2'-METHOXYAURONE], the CC50 in data set [4] was determined as 273 µM.
Consider `O=C1/C(=C/c2ccccc2Cl)Oc2ccccc21`, for which the half-maximal cytotoxic concentration (CC50) in data set [4] turned out to be 339 µM.
`COc1cccc(-c2cc(=O)c3ccccc3o2)c1`: in the data set with Influenza A virus, the EC50 was determined as 0.0126 µM. This compound had an IC50 in data set [2] of 10.8 µM. In addition, in data set [3], the selectivity ratio amounted to 21000. For the same compound, the 50% cytotoxic concentration (CC50) in data set [4] was 263 µM.
Consider `COc1cccc(/C=C2\Oc3ccccc3C2=O)c1` [3'-METHOXY-AURONE], for which the cytotoxic concentration (CC50) in data set [4] worked out at 7.81 µM.
On to `O=C1/C(=C/c2cccc([N+](=O)[O-])c2)Oc2ccccc21`, for which, in data set [4], the CC50 turned out to be 396 µM.
In the case of `O=C1/C(=C/c2ccc([N+](=O)[O-])cc2)Oc2ccccc21`, the EC50 in the data set on Influenza A virus is 0.0463 µM. The midpoint of inhibition in data set [2], the IC50, lay at 41 µM. Also, the selectivity ratio in data set [3] is 4600. In addition, in data set [4], the CC50 was determined as 213 µM.
As for `O=c1cc(-c2cccc([N+](=O)[O-])c2)oc2ccccc12`, in the data set with Influenza A virus, the EC50 stood at 0.0141 µM. Also, the IC50 in data set [2] is 15.4 µM. Besides, the selectivity ratio in data set [3] stood at 19100. The half-maximal cytotoxic concentration (CC50) in data set [4] worked out at 269 µM.
As for `CCC(CC)O[C@@H]1C=C(C(=O)O)C[C@H](N)[C@H]1NC(C)=O` [OSELTAMIVIR CARBOXYLATE], the EC50 with Influenza A virus turned out to be 0.0071 µM. Moreover, in data set [4], the CC50 came out at 713 µM.
On to `O=C1/C(=C/c2ccc(Cl)cc2)Oc2ccccc21`, for which the half-maximal effective concentration (EC50) in the data set with Influenza A virus came out at 0.0514 µM. Further, the IC50 in data set [2] was 45.4 µM. In addition, the selectivity ratio in data set [3] is 5300. In addition, in data set [4], the half-maximal cytotoxic concentration (CC50) was found to be 272 µM.
